{"source": "patent US11696917B2", "about": "“Agent enhancing antitumor effect using pyrazolo[3,4-d]pyrimidine compound” (TAIHO PHARMACEUTICAL CO., LTD., priority 2017, dated 2023)", "system": "NCI-N87 (human stomach cancer)", "assay": "Combination of Compound 1 and other antitumor agents (in vitro), CellTiter-Glo, median effect method", "type": "cell-based", "experimental": "The supplier of each reagent, the suppliers of tumor cell lines, the media used, and the numbers of cells to be inoculated are shown in the tables below.\nThe cells were inoculated at 20 μL/well to a 384-well culture plate (Corning Inc.). The plate inoculated with the cells were cultured in an incubator set to 37° C. and 5% CO2. On the day following inoculation, each of mixed solutions of Compound 1 and each other antitumor agent at varying combinations of concentrations was added to the cells. Specifically, 8 serial dilutions (including (0 nM)) of Compound 1 and 10 serial dilutions (including (0 nM)) of the other antitumor agent were prepared using Leibovitz's L-15 medium containing 10% FBS, or ATCC formulated RPMI-1640 medium containing 10% FBS. Drug solutions in which equal amounts of the respective serial dilutions of the compounds were dispensed were mixed at a ratio of 1:1 to prepare a total of 80 mixed drug solutions including every combination. Each of these mixed drug solutions was added at 5 μL/well (N=4) to the plate, followed by further culture for 3 days under conditions of 37° C. and 5% CO2.\nThree days later, CellTiter-Glo™ 2.0 Reagent (Promega Corporation) was added thereto at 25 μL/well, and chemiluminescence was measured using a plate reader (EnSpire® Multimode Plate Reader, PerkinElmer Japan Co., Ltd.).\nThe enhancement of an effect by combined use of the drugs was evaluated according to a method known in the art (a method described in Trends Pharmacol. Sci., 4, 450-454, 1983 or Pharmacol Rev., 58 (3), 621-81, 2006).\nAn average value from 4 wells of each combination was calculated from the obtained data, and a cell survival rate normalized against a control supplemented with a medium containing a vehicle was calculated. A Fa (fraction of affect) value was calculated by subtracting the cell survival rate from 1. Median effect analysis software CalcuSyn 2.0 (CalcuSyn, Inc.) for calculation by the median effect method was used in the calculation of CI.\nAs for the combinations of the concentrations of both the drugs for calculating CI, a Fa value closer to 1 presumably means a concentration range in which one of the drugs had too strong an effect, and a Fa value closer to 0 presumably means a concentration range in which any of the drugs had too weak an effect. Since these concentration ranges were not appropriate for the discussion of a synergistic effect, combinations that satisfied 0.2 S Fa 0.8 were extracted from the combinations of the respective concentrations of Compound 1 and the other antitumor agent on the basis of the calculated Fa value.\nAn effect of combined use was determined as shown in the table below (Pharmacol Rev., 58 (3), p. 621-81, 2006).", "key": {"[1]": {"settings": "Compound 1 3.70 nM + FdUrd 333333 nM, ratio 1:90000, NCI-N87"}, "[2]": {"settings": "Compound 1 3.70 nM + Gemcitabine 1.37 nM, ratio 1:0.37, NCI-N87"}, "[3]": {"settings": "Compound 1 3.70 nM + Gemcitabine 4.12 nM, ratio 1:1.1, NCI-N87"}, "[4]": {"settings": "Compound 1 3.70 nM + Gemcitabine 12.3 nM, ratio 1:3.3, NCI-N87"}, "[5]": {"settings": "Compound 1 3.70 nM + Gemcitabine 37.0 nM, ratio 1:10, NCI-N87"}, "[6]": {"settings": "Compound 1 3.70 nM + Gemcitabine 111 nM, ratio 1:30, NCI-N87"}, "[7]": {"settings": "Compound 1 3.70 nM + Gemcitabine 333 nM, ratio 1:90, NCI-N87"}, "[8]": {"settings": "Compound 1 3.70 nM + Paclitaxel 1.85 nM, ratio 1:0.50, NCI-N87"}, "[9]": {"settings": "Compound 1 3.70 nM + Paclitaxel 5.56 nM, ratio 1:1.5, NCI-N87"}, "[10]": {"settings": "Compound 1 3.70 nM + Paclitaxel 16.7 nM, ratio 1:4.5, NCI-N87"}, "[11]": {"settings": "Compound 1 3.70 nM + Trifluridine 12346 nM, ratio 1:3333, NCI-N87"}, "[12]": {"settings": "Compound 1 3.70 nM + Trifluridine 37037 nM, ratio 1:10000, NCI-N87"}, "[13]": {"settings": "Compound 1 3.70 nM + Trifluridine 111111 nM, ratio 1:30000, NCI-N87"}, "[14]": {"settings": "Compound 1 11.1 nM + Cisplatin 687 nM, ratio 1:62, NCI-N87"}, "[15]": {"settings": "Compound 1 11.1 nM + Cisplatin 2062 nM, ratio 1:186, NCI-N87"}, "[16]": {"settings": "Compound 1 11.1 nM + Cisplatin 6185 nM, ratio 1:557, NCI-N87"}, "[17]": {"settings": "Compound 1 11.1 nM + Cisplatin 18556 nM, ratio 1:1670, NCI-N87"}, "[18]": {"settings": "Compound 1 11.1 nM + Cisplatin 55667 nM, ratio 1:5010, NCI-N87"}, "[19]": {"settings": "Compound 1 11.1 nM + FdUrd 4115 nM, ratio 1:370, NCI-N87"}, "[20]": {"settings": "Compound 1 11.1 nM + FdUrd 12346 nM, ratio 1:1111, NCI-N87"}, "[21]": {"settings": "Compound 1 11.1 nM + FdUrd 37037 nM, ratio 1:3333, NCI-N87"}, "[22]": {"settings": "Compound 1 11.1 nM + FdUrd 111111 nM, ratio 1:10000, NCI-N87"}, "[23]": {"settings": "Compound 1 11.1 nM + FdUrd 333333 nM, ratio 1:30000, NCI-N87"}, "[24]": {"settings": "Compound 1 11.1 nM + FdUrd 1000000 nM, ratio 1:90000, NCI-N87"}, "[25]": {"settings": "Compound 1 11.1 nM + Paclitaxel 0.206 nM, ratio 1:0.019, NCI-N87"}, "[26]": {"settings": "Compound 1 11.1 nM + Paclitaxel 0.617 nM, ratio 1:0.056, NCI-N87"}, "[27]": {"settings": "Compound 1 11.1 nM + Paclitaxel 1.85 nM, ratio 1:0.17, NCI-N87"}, "[28]": {"settings": "Compound 1 11.1 nM + Paclitaxel 5.56 nM, ratio 1:0.50, NCI-N87"}, "[29]": {"settings": "Compound 1 11.1 nM + Trifluridine 4115 nM, ratio 1:370, NCI-N87"}, "[30]": {"settings": "Compound 1 11.1 nM + Trifluridine 12346 nM, ratio 1:1111, NCI-N87"}, "[31]": {"settings": "Compound 1 11.1 nM + Trifluridine 37037 nM, ratio 1:3333, NCI-N87"}, "[32]": {"settings": "Compound 1 11.1 nM + Trifluridine 111111 nM, ratio 1:10000, NCI-N87"}, "[33]": {"settings": "Compound 1 33.3 nM + Cisplatin 2062 nM, ratio I:62, NCI-N87"}, "[34]": {"settings": "Compound 1 33.3 nM + FdUrd 12346 nM, ratio 1:370, NCI-N87"}, "[35]": {"settings": "Compound 1 […] + Gemcitabine 4.12 nM, ratio 1:10, NCI-N87"}, "[36]": {"settings": "Compound 1 […] + Gemcitabine 12.3 nM, ratio 1:30, NCI-N87"}, "[37]": {"settings": "Compound 1 […] + Gemcitabine 37.0 nM, ratio 1:90, NCI-N87"}}}
{"smiles": "C=CC(=O)N1CCC[C@@H](n2nc(C(=O)Nc3ccc(CC(=O)N(C)C)c(C)c3C)c3c(N)ncnc32)C1", "note": "[Compound 1, (R)-1-(1-acryloylpiperidin-3-yl)-4-amino-N-(4-(2-(dimethylamino)-2-oxoethyl)-2,3-dimethylphenyl)-1H-pyrazolo[3,4-d]pyrimidine-3-carboxamide]", "values": [{"measurement": "CI", "setting": "[1]", "value": 0.47}, {"measurement": "Fa", "setting": "[1]", "value": 0.62}, {"measurement": "CI", "setting": "[2]", "value": 0.15}, {"measurement": "Fa", "setting": "[2]", "value": 0.75}, {"measurement": "CI", "setting": "[3]", "value": 0.12}, {"measurement": "Fa", "setting": "[3]", "value": 0.77}, {"measurement": "CI", "setting": "[4]", "value": 0.10}, {"measurement": "Fa", "setting": "[4]", "value": 0.80}, {"measurement": "CI", "setting": "[5]", "value": 0.11}, {"measurement": "Fa", "setting": "[5]", "value": 0.78}, {"measurement": "CI", "setting": "[6]", "value": 0.11}, {"measurement": "Fa", "setting": "[6]", "value": 0.78}, {"measurement": "CI", "setting": "[7]", "value": 0.12}, {"measurement": "Fa", "setting": "[7]", "value": 0.77}, {"measurement": "CI", "setting": "[8]", "value": 0.84}, {"measurement": "Fa", "setting": "[8]", "value": 0.41}, {"measurement": "CI", "setting": "[9]", "value": 0.42}, {"measurement": "Fa", "setting": "[9]", "value": 0.64}, {"measurement": "CI", "setting": "[10]", "value": 0.55}, {"measurement": "Fa", "setting": "[10]", "value": 0.71}, {"measurement": "CI", "setting": "[11]", "value": 0.51}, {"measurement": "Fa", "setting": "[11]", "value": 0.57}, {"measurement": "CI", "setting": "[12]", "value": 0.51}, {"measurement": "Fa", "setting": "[12]", "value": 0.61}, {"measurement": "CI", "setting": "[13]", "value": 0.51}, {"measurement": "Fa", "setting": "[13]", "value": 0.67}, {"measurement": "CI", "setting": "[14]", "value": 0.87}, {"measurement": "Fa", "setting": "[14]", "value": 0.59}, {"measurement": "CI", "setting": "[15]", "value": 0.71}, {"measurement": "Fa", "setting": "[15]", "value": 0.64}, {"measurement": "CI", "setting": "[16]", "value": 0.48}, {"measurement": "Fa", "setting": "[16]", "value": 0.74}, {"measurement": "CI", "setting": "[17]", "value": 0.50}, {"measurement": "Fa", "setting": "[17]", "value": 0.77}, {"measurement": "CI", "setting": "[18]", "value": 0.90}, {"measurement": "Fa", "setting": "[18]", "value": 0.79}, {"measurement": "CI", "setting": "[19]", "value": 0.79}, {"measurement": "Fa", "setting": "[19]", "value": 0.61}, {"measurement": "CI", "setting": "[20]", "value": 0.55}, {"measurement": "Fa", "setting": "[20]", "value": 0.68}, {"measurement": "CI", "setting": "[21]", "value": 0.58}, {"measurement": "Fa", "setting": "[21]", "value": 0.67}, {"measurement": "CI", "setting": "[22]", "value": 0.46}, {"measurement": "Fa", "setting": "[22]", "value": 0.73}, {"measurement": "CI", "setting": "[23]", "value": 0.52}, {"measurement": "Fa", "setting": "[23]", "value": 0.75}, {"measurement": "CI", "setting": "[24]", "value": 0.31}, {"measurement": "Fa", "setting": "[24]", "value": 0.79}, {"measurement": "CI", "setting": "[25]", "value": 0.58}, {"measurement": "Fa", "setting": "[25]", "value": 0.69}, {"measurement": "CI", "setting": "[26]", "value": 0.52}, {"measurement": "Fa", "setting": "[26]", "value": 0.71}, {"measurement": "CI", "setting": "[27]", "value": 0.61}, {"measurement": "Fa", "setting": "[27]", "value": 0.69}, {"measurement": "CI", "setting": "[28]", "value": 0.44}, {"measurement": "Fa", "setting": "[28]", "value": 0.78}, {"measurement": "CI", "setting": "[29]", "value": 0.79}, {"measurement": "Fa", "setting": "[29]", "value": 0.69}, {"measurement": "CI", "setting": "[30]", "value": 0.51}, {"measurement": "Fa", "setting": "[30]", "value": 0.77}, {"measurement": "CI", "setting": "[31]", "value": 0.63}, {"measurement": "Fa", "setting": "[31]", "value": 0.74}, {"measurement": "CI", "setting": "[32]", "value": 0.49}, {"measurement": "Fa", "setting": "[32]", "value": 0.80}, {"measurement": "CI", "setting": "[33]", "value": 0.73}, {"measurement": "Fa", "setting": "[33]", "value": 0.80}, {"measurement": "CI", "setting": "[34]", "value": 0.76}, {"measurement": "Fa", "setting": "[34]", "value": 0.80}, {"measurement": "CI", "setting": "[35]", "value": 0.21}, {"measurement": "Fa", "setting": "[35]", "value": 0.68}, {"measurement": "CI", "setting": "[36]", "value": 0.23}, {"measurement": "Fa", "setting": "[36]", "value": 0.69}, {"measurement": "CI", "setting": "[37]", "value": 0.02}, {"measurement": "Fa", "setting": "[37]", "value": 0.71}]}
